Measurements: patent publication US20240116900A1, “NEW CRYSTALLINE FORMS OF A KRAS G12C INHIBITOR COMPOUND” (NOVARTIS AG, priority 2020, published 2024)
Where two headings read alike, the source gives them in different places.

Key:
[1] = Water sorption and desorption isotherms by Dynamic Vapor Sorption (DVS); assay type: physicochemical; settings: for Change In Mass (%) - ref, Desorption / Change In Mass (%) - ref, Sorption / hygroscopicity: 25° C.; for Change In Mass (%) - ref, Desorption / Change In Mass (%) - ref, Sorption: 40-0-95-0-40 (% RH); for hygroscopicity: 0 to 95% RH
Description: Water sorption and desorption isotherms were recorded at 25° C., 40° C. or 60° C. using a Dynamic Vapor Sorption (DVS) instrument as follows. The cycle used was as follows: 40-0-95-0-40 (% RH).

[2] = XRPD upon variation of humidity and temperature; assay type: physicochemical
[3] = Bulk stability studies (XRPD, HPLC degradation products); settings: 1 week 50° C., 75% RH
Description: The stability of the crystalline form was investigated as follows. Bulk samples were analysed, e.g. by HPLC and/or XRPD after being exposed to various temperatures and residual humidities.

[4] = Granulation simulation experiments (XRPD after wetting and grinding); assay type: physicochemical
Description: Granulating solvent was added drop wise to the solid form being tested until the solid form was wetted sufficiently. The wet substance was ground manually. The solid form was evaluated for degree of crystallinity or form change by e.g., XRPD analysis and/or DSC analysis. Granulating solvents were water, pH 4.7, 50 mM acetate buffer, and pH 6.8, 50 mM phosphate buffer.

KRAS G12C [5] = target: T1, KRAS G12C (Homo sapiens, UniProt P01116, G12C); test: Covalent inhibition / binding of KRAS G12C; settings: binds KRAS G12C and traps it into inactive GDP-bound state
KRAS G12C [6] = target: T1, KRAS G12C; test: Cellular assay: downstream effector protein recruitment; assay type: cell-based; settings: cellular assays
[7] = tested on: KR ASG12C mutant cell lines; test: Cellular assays: KRAS-driven oncogenic signaling and proliferation; assay type: cell-based; settings: specifically in KRAS G12C mutant cell lines
[8] = tested on: KRAS G12C mutant xenograft and patient-derived xenograft tumor models; test: Xenograft and patient-derived xenograft tumor models; assay type: in vivo; settings: mice

Row | Compound | Change In Mass (%) - ref, Desorption ([1]; Cycle 1, target RH 0.0%) | Change In Mass (%) - ref, Sorption ([1]; Cycle 1, target RH 0.0%) | Change In Mass (%) - ref, Desorption ([1]; Cycle 1, target RH 10.0%) | Change In Mass (%) - ref, Sorption ([1]; Cycle 1, target RH 10.0%) | Change In Mass (%) - ref, Desorption ([1]; Cycle 1, target RH 20.0%) | Change In Mass (%) - ref, Sorption ([1]; Cycle 1, target RH 20.0%) | Change In Mass (%) - ref, Desorption ([1]; Cycle 1, target RH 30.0%) | Change In Mass (%) - ref, Sorption ([1]; Cycle 1, target RH 30.0%) | Change In Mass (%) - ref, Desorption ([1]; Cycle 1, target RH 40.0%) | Change In Mass (%) - ref, Sorption ([1]; Cycle 1, target RH 40.0%) | Change In Mass (%) - ref, Sorption ([1]; Cycle 1, target RH 50.0%) | Change In Mass (%) - ref, Sorption ([1]; Cycle 1, target RH 60.0%) | Change In Mass (%) - ref, Sorption ([1]; Cycle 1, target RH 70.0%) | Change In Mass (%) - ref, Sorption ([1]; Cycle 1, target RH 80.0%) | Change In Mass (%) - ref, Sorption ([1]; Cycle 1, target RH 90.0%) | Change In Mass (%) - ref, Sorption ([1]; Cycle 1, target RH […]) | Change In Mass (%) - ref, Desorption ([1]; Cycle 2, target RH 0.0%) | Change In Mass (%) - ref, Sorption ([1]; Cycle 2, target RH 0.0%) | Change In Mass (%) - ref, Desorption ([1]; Cycle 2, target RH 10.0%) | Change In Mass (%) - ref, Sorption ([1]; Cycle 2, target RH 10.0%) | further results
1 | C=CC(=O)N1CC2(CC(n3nc(-c4ccc5c(cnn5C)c4)c(-c4c(Cl)c(C)cc5[nH]ncc45)c3C)C2)C1.O.O.O.O [Hydrate HB] | 0.00% | 0.00% | 1.87% | 0.56% | 2.62% | 2.03% | 12.26% | 2.51% | 12.73% | 2.81% | 3.17% | 3.69% | 5.09% | 10.34% | 12.94% | 13.35% | −0.09% | −0.09% | 1.74% | 0.47% | maximum water uptake ([1]; 25° C. and up to 95% RH): about 13%; Change In Mass (%) - ref, Desorption ([1]; Cycle 2, target RH 20.0%): 2.37%; Change In Mass (%) - ref, Sorption ([1]; Cycle 2, target RH 20.0%): 1.88%; Change In Mass (%) - ref, Desorption ([1]; Cycle 2, target RH 30.0%): 11.38%; Change In Mass (%) - ref, Sorption ([1]; Cycle 2, target RH 30.0%): 2.32%; Change In Mass (%) - ref, Desorption ([1]; Cycle 2, target RH 40.0%): 11.87%; Change In Mass (%) - ref, Sorption ([1]; Cycle 2, target RH 40.0%): 2.69%; Change In Mass (%) - ref, Desorption ([1]; Cycle 2, target RH 50.0%): 12.24%; Change In Mass (%) - ref, Desorption ([1]; Cycle 2, target RH 60.0%): 12.53%; Change In Mass (%) - ref, Desorption ([1]; Cycle 2, target RH 70.0%): 12.78%; Change In Mass (%) - ref, Desorption ([1]; Cycle 2, target RH 80.0%): 13.02%; Change In Mass (%) - ref, Desorption ([1]; Cycle 2, target RH 90.0%): 13.24%; Change In Mass (%) - ref, Desorption ([1]; Cycle 2, target RH […]): 13.35%; form change at 0% RH ([2]; 0% RH): completely dehydrates; form change on heating ([2]; further heating to 70° C. and above): converts to an anhydrous form, Modification B; XRPD pattern on heating ([2]; heated from 25° C. to 40° C.): changes to hydrate HC; % Degradation Products, as measured by HPLC ([3]; area-% products): 3.97%
2 | C=CC(=O)N1CC2(CC(n3nc(-c4ccc5c(cnn5C)c4)c(-c4c(Cl)c(C)cc5[nH]ncc45)c3C)C2)C1 [Modification C] | −0.0018% | −0.0018% | 0.0522% | 0.0639% | 0.0984% | 0.1010% | 0.1282% | 0.1365% | 0.1658% | 0.1764% | 0.2099% | 0.2719% | 0.2954% | 0.3628% | 0.4475% | 0.5450% | −0.0143% | −0.0143% | 0.0532% | 0.0434% | hygroscopicity [1]: non hygroscopic; Change In Mass (%) - ref, Desorption ([1]; Cycle 2, target RH 20.0%): 0.1019%; Change In Mass (%) - ref, Sorption ([1]; Cycle 2, target RH 20.0%): 0.0893%; Change In Mass (%) - ref, Desorption ([1]; Cycle 2, target RH 30.0%): 0.1500%; Change In Mass (%) - ref, Desorption ([1]; Cycle 2, target RH 40.0%): 0.2014%; Change In Mass (%) - ref, Sorption ([1]; Cycle 2, target RH 40.0%): 0.1725%; Change In Mass (%) - ref, Desorption ([1]; Cycle 2, target RH 50.0%): 0.2678%; Change In Mass (%) - ref, Desorption ([1]; Cycle 2, target RH 60.0%): 0.3212%; Change In Mass (%) - ref, Desorption ([1]; Cycle 2, target RH 70.0%): 0.3789%; Change In Mass (%) - ref, Desorption ([1]; Cycle 2, target RH 80.0%): 0.4299%; Change In Mass (%) - ref, Desorption ([1]; Cycle 2, target RH 90.0%): 0.5046%; Change In Mass (%) - ref, Desorption ([1]; Cycle 2, target RH […]): 0.5450%; form change after granulation simulation ([4]; aqueous media as the solvent for granulation): no form change; form change after equilibration (in ethanol, and methanol): converts to Hydrate HA; form change after equilibration (in isopropanol): converts into a mixture of HA and the isopropanol solvate; XRPD after bulk storage [3]: No change
3 | C=CC(=O)N1CC2(CC(n3nc(-c4ccc5c(cnn5C)c4)c(-c4c(Cl)c(C)cc5[nH]ncc45)c3C)C2)C1 [Hydrate HA] | 0.002% | 0.002% | 2.638% | 2.390% | 3.008% | 2.782% | 3.381% | 3.184% | 3.838% | 3.660% | 4.295% | 5.234% | 6.244% | 7.007% | 7.633% | 7.973% | 0.000% | 0.000% | 2.659% | 2.388% | water content corresponding to hosted water molecules ([1]; 2.5 molecules of water): 7.9%; hygroscopicity [1]: hygroscopic; water absorbed ([1]; 80% RH at 25° C.): up to 7.0%; Change In Mass (%) - ref, Desorption ([1]; Cycle 2, target RH 20.0%): 3.102%; Change In Mass (%) - ref, Sorption ([1]; Cycle 2, target RH 20.0%): 2.773%; Change In Mass (%) - ref, Desorption ([1]; Cycle 2, target RH 30.0%): 3.573%; Change In Mass (%) - ref, Sorption ([1]; Cycle 2, target RH 30.0%): 3.163%; Change In Mass (%) - ref, Desorption ([1]; Cycle 2, target RH 40.0%): 4.126%; Change In Mass (%) - ref, Sorption ([1]; Cycle 2, target RH 40.0%): 3.624%; Change In Mass (%) - ref, Desorption ([1]; Cycle 2, target RH 50.0%): 5.062%; Change In Mass (%) - ref, Desorption ([1]; Cycle 2, target RH 60.0%): 6.040%; Change In Mass (%) - ref, Desorption ([1]; Cycle 2, target RH 70.0%): 6.816%; Change In Mass (%) - ref, Desorption ([1]; Cycle 2, target RH 80.0%): 7.346%; Change In Mass (%) - ref, Desorption ([1]; Cycle 2, target RH 90.0%): 7.766%; Change In Mass (%) - ref, Desorption ([1]; Cycle 2, target RH […]): 7.973%; molecules of water hosted ([1]; depending on the relative humidity): up to 2.5 molecules; XRPD after granulation simulation ([4]; solvent for granulation: Water): no form change; form change on heating ([2]; at 80° C.): converts into an anhydrous form, namely Modification A; XRPD pattern on heating ([2]; heated at ambient relative humidity from 25° C. to 65° C.): remains unchanged; form change after equilibration (XRPD) (50° C. and 70° C.): formation of several solvates in cyclohexane, ethanol, isopropanol or 1,2-propanediol
4 | C=CC(=O)N1CC2(CC(n3nc(-c4ccc5c(cnn5C)c4)c(-c4c(Cl)c(C)cc5[nH]ncc45)c3C)C2)C1 (single isomer, unassigned) [Compound A, 1-{6-[(4M)-4-(5-chloro-6-methyl-1H-indazol-4-yl)-5-methyl-3-(1-methyl-1H-indazol-5-yl)-1H-pyrazol-1-yl]-2-azaspiro[3.3]heptan-2-yl}prop-2-en-1-one] | – | – | – | – | – | – | – | – | – | – | – | – | – | – | – | – | – | – | – | – | inhibition of KRAS G12C (KRAS G12C [5]): potent and selective covalent inhibitor; downstream effector protein recruitment to KRAS G12C (KRAS G12C [6]): selectively inhibited; KRAS-driven oncogenic signaling and proliferation [7]: inhibited; antitumor activity [8]: dose-dependent antitumor activity; expression of the MAPK pathway target gene dual-specific phosphatase 6 (DUPS6) [8]: reduction of expression
